Laboratory results as given in ChEMBL document CHEMBL1201862, “PubChem BioAssay data set” (2004).
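Cells were grown in 96-well plates and exposed to each compound for 48 hours at five concentrations; endpoints were interpolated linearly between bracketing concentrations, or set to the highest concentration if not reached. GI50 = concentration required for 50% inhibition of growth.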 Calls of active or inactive are those of the source. Rule as the data show it: active = GI50 up to about 1.1 µM and inactive = higher.

Assays:
Experiment in all cases: NCI-60 cell line screen, 48 h
NCI/ADR-RES = tested on: NCI/ADR-RES
NCI-H23 = tested on: NCI-H23
PC-3 = tested on: PC-3
SR = tested on: SR
HCT-116 = tested on: HCT-116
UACC-62 = tested on: UACC-62
SK-MEL-28 = tested on: SK-MEL-28
UO-31 = tested on: UO-31
NCI-H460 = tested on: NCI-H460
NCI-H226 = tested on: NCI-H226
HT-29 = tested on: HT-29
KM-20L2 = tested on: KM-20L2
SF-295 = tested on: SF-295
OVCAR-3 = tested on: OVCAR-3
SNB-19 = tested on: SNB-19
T47D = tested on: T47D
786-0 = tested on: 786-0
OVCAR-8 = tested on: OVCAR-8
SK-OV-3 = tested on: SK-OV-3
Hs-578T = tested on: Hs-578T

Structure (SMILES)	GI50 (NCI/ADR-RES)	GI50 (NCI-H23)	GI50 (PC-3)	GI50 (SR)	GI50 (HCT-116)	GI50 (UACC-62)	GI50 (SK-MEL-28)	GI50 (UO-31)	GI50 (NCI-H460)	GI50 (NCI-H226)	GI50 (HT-29)	GI50 (KM-20L2)	GI50 (SF-295)	GI50 (OVCAR-3)	GI50 (SNB-19)	GI50 (T47D)	GI50 (786-0)	GI50 (OVCAR-8)	GI50 (SK-OV-3)	GI50 (Hs-578T)
O=C(NCCCCCCNC(=O)n1cc(F)c(=O)[nH]c1=O)NCCCOCCOCCOCCOCCOCCOCCOCCOCCOCCOCCOCCOCCOCCOCCOCCOCCOCCOCCOCCOCCOCCCNC(=O)C(O)C(O)C(O)C(O)CO (stereo not given)	69.8 µM (inactive)	32.8 µM (inactive)	64.3 µM (inactive)	65.9 µM (inactive)	9.57 µM (inactive)	28.8 µM (inactive)	16.3 µM (inactive)	20.9 µM (inactive)	5.37 µM (inactive)	> 100 µM (inactive)	17.5 µM (inactive)	22.5 µM (inactive)	48.9 µM (inactive)	55.5 µM (inactive)	84.7 µM (inactive)	> 100 µM (inactive)	26.6 µM (inactive)	39.2 µM (inactive)	> 100 µM (inactive)	61.8 µM (inactive)
Nc1ccc(C(=O)N/C(=C\C=C\c2ccco2)c2nc3c(O)nc(S)nc3[nH]2)cc1		> 100 µM (inactive)		> 100 µM (inactive)		> 10 µM (inactive)	> 100 µM (inactive)	> 100 µM (inactive)			> 100 µM (inactive)	87.1 µM (inactive)	> 100 µM (inactive)	> 100 µM (inactive)	> 100 µM (inactive)		> 100 µM (inactive)	> 100 µM (inactive)	> 100 µM (inactive)	
CC(=O)[C@@]1(O)CC[C@H]2[C@@H]3C[C@H](C)C4=CC(=O)C=C[C@]4(C)[C@@]3(F)[C@@H](O)C[C@@]21C [FLUOROMETHOLONE]	> 100 µM (inactive)	> 100 µM (inactive)	> 59.3 µM (inactive)	> 100 µM (inactive)	> 100 µM (inactive)	> 100 µM (inactive)	> 100 µM (inactive)	> 100 µM (inactive)	> 100 µM (inactive)	> 11.3 µM (inactive)	> 100 µM (inactive)	> 100 µM (inactive)	> 100 µM (inactive)	> 100 µM (inactive)	> 100 µM (inactive)	> 69.8 µM (inactive)	> 100 µM (inactive)	> 69.7 µM (inactive)	> 100 µM (inactive)	> 100 µM (inactive)
COc1cccc2c1[C@H]1CO[C@H]3C4C[C@H](C(=O)O)C([C@@H](C2)N13)N4C (stereo not given in full)	0.764 µM (active)	1.79 µM (inactive)		1.14 µM (inactive)	2.53 µM (inactive)	1.12 µM (inactive)	2.1 µM (inactive)	1.54 µM (inactive)	3.93 µM (inactive)	1.29 µM (inactive)	2.13 µM (inactive)	3.24 µM (inactive)	7.1 µM (inactive)	1.38 µM (inactive)	2.91 µM (inactive)	0.242 µM (active)	1.3 µM (inactive)			0.0769 µM (active)
Cc1ccc(C[P+]2(c3ccccc3)CCCCC2)cc1.[O-][Cl+3]([O-])([O-])[O-]		24.7 µM (inactive)		23.1 µM (inactive)	1.33 µM (inactive)	23 µM (inactive)	27.7 µM (inactive)	> 100 µM (inactive)	37.6 µM (inactive)	48.1 µM (inactive)	21.1 µM (inactive)	31.2 µM (inactive)	44.2 µM (inactive)	10 µM (inactive)	32.3 µM (inactive)		47.4 µM (inactive)	20.6 µM (inactive)	60.8 µM (inactive)	
[N-]=[N+]=CC(=O)CCC(N)C(=O)O (stereo not given)	8.38 µM (inactive)	4.42 µM (inactive)	0.741 µM (active)	0.809 µM (active)		2.88 µM (inactive)	2.8 µM (inactive)	5.12 µM (inactive)	1.38 µM (inactive)	39.6 µM (inactive)	0.385 µM (active)	0.226 µM (active)	1.28 µM (inactive)		8.71 µM (inactive)	18.7 µM (inactive)	2.14 µM (inactive)	2.02 µM (inactive)	1.35 µM (inactive)	62.2 µM (inactive)
CCC(CO)Nc1nc2c(c(=O)n(C)c(=O)n2C)n1CCO (stereo not given)		> 100 µM (inactive)		> 100 µM (inactive)	> 100 µM (inactive)	> 100 µM (inactive)	> 100 µM (inactive)	> 100 µM (inactive)		> 100 µM (inactive)	> 100 µM (inactive)	> 100 µM (inactive)	> 100 µM (inactive)	> 100 µM (inactive)	> 100 µM (inactive)		> 100 µM (inactive)	> 100 µM (inactive)	> 100 µM (inactive)	
CCSCN(C)c1nc(N(C)C)nc(N(C)C)n1		33.6 µM (inactive)		30 µM (inactive)	54.7 µM (inactive)	40.4 µM (inactive)	56.4 µM (inactive)	41.7 µM (inactive)	39.8 µM (inactive)		36.5 µM (inactive)	55 µM (inactive)	92.3 µM (inactive)	38.3 µM (inactive)	78 µM (inactive)		36.7 µM (inactive)	81.5 µM (inactive)	> 100 µM (inactive)	
CCN(CC)CCCC(C)Nc1ccnc2cc(Cl)ccc12 (stereo not given) [CHLOROQUINE PHOSPHATE]	42.1 µM (inactive)	> 84.7 µM (inactive)	19 µM (inactive)	13.6 µM (inactive)	12 µM (inactive)	28.8 µM (inactive)	20.6 µM (inactive)	14.9 µM (inactive)	18 µM (inactive)		17.5 µM (inactive)	14.6 µM (inactive)	21 µM (inactive)	97.1 µM (inactive)	> 76.4 µM (inactive)	28.1 µM (inactive)	11.7 µM (inactive)	33.4 µM (inactive)	> 76.7 µM (inactive)	
CCN(CC)CC(C)C(=O)/C=C/c1ccc(C)cc1 (stereo not given)		6.31 µM (inactive)		2.48 µM (inactive)	1.73 µM (inactive)	3.3 µM (inactive)	1.85 µM (inactive)	13.5 µM (inactive)	4.83 µM (inactive)	16.6 µM (inactive)	1.85 µM (inactive)	10 µM (inactive)	15 µM (inactive)	4.2 µM (inactive)	16.7 µM (inactive)		1.88 µM (inactive)	2.07 µM (inactive)	17 µM (inactive)	
COC(=O)C(C#CCCCCC#CC(NC(=O)OCc1ccccc1)(C(=O)OC)C(F)(F)F)(NC(=O)OCc1ccccc1)C(F)(F)F (stereo not given)		> 100 µM (inactive)			97.9 µM (inactive)	> 100 µM (inactive)	> 100 µM (inactive)	7.45 µM (inactive)	> 100 µM (inactive)	> 100 µM (inactive)	> 100 µM (inactive)	> 100 µM (inactive)	> 100 µM (inactive)	> 100 µM (inactive)	> 100 µM (inactive)		> 100 µM (inactive)	> 100 µM (inactive)	> 100 µM (inactive)	
O=C(/C=C/c1ccccc1)CCN1CCOCC1	21.6 µM (inactive)	16.2 µM (inactive)	17.4 µM (inactive)	2.06 µM (inactive)	12.1 µM (inactive)	16 µM (inactive)	11.4 µM (inactive)	16.6 µM (inactive)	17.8 µM (inactive)	20.8 µM (inactive)	13.6 µM (inactive)	15.9 µM (inactive)	19 µM (inactive)	14.3 µM (inactive)	23.8 µM (inactive)	17.7 µM (inactive)	6.85 µM (inactive)	15.1 µM (inactive)	24.1 µM (inactive)	27.1 µM (inactive)
NC(=O)C1C(=O)Oc2cccnc21 (stereo not given)		> 100 µM (inactive)			> 100 µM (inactive)	> 100 µM (inactive)	> 100 µM (inactive)	99.8 µM (inactive)	86.7 µM (inactive)	96.2 µM (inactive)	> 100 µM (inactive)	> 100 µM (inactive)	> 100 µM (inactive)	> 100 µM (inactive)	> 100 µM (inactive)		> 100 µM (inactive)	> 100 µM (inactive)	> 100 µM (inactive)	
COc1ccc2ccc([Se]c3ccc4ccc(OC)cc4c3)cc2c1		> 100 µM (inactive)			58.1 µM (inactive)	> 100 µM (inactive)	> 100 µM (inactive)	23.7 µM (inactive)	89.1 µM (inactive)	63.1 µM (inactive)	50.1 µM (inactive)	> 100 µM (inactive)	74.6 µM (inactive)	> 100 µM (inactive)	23.3 µM (inactive)		49.7 µM (inactive)	21.8 µM (inactive)	> 100 µM (inactive)	
COc1cc2c(c3c1C=CCO3)C(=O)c1ccccc1C2=O		> 100 µM (inactive)		28 µM (inactive)	33.3 µM (inactive)	47.4 µM (inactive)	> 100 µM (inactive)	29.5 µM (inactive)	39.8 µM (inactive)	32.2 µM (inactive)	70.1 µM (inactive)	59.4 µM (inactive)	> 100 µM (inactive)	42.8 µM (inactive)	45.3 µM (inactive)		57.7 µM (inactive)	40.8 µM (inactive)	> 100 µM (inactive)	
COC1CC(OS(=O)(=O)c2ccc(C)cc2)C(OS(=O)(=O)c2ccc(C)cc2)C(COS(=O)(=O)c2ccc(C)cc2)O1 (stereo not given)		2.92 µM (inactive)		6.12 µM (inactive)	14.5 µM (inactive)	5.61 µM (inactive)	2.98 µM (inactive)	3.76 µM (inactive)	4.3 µM (inactive)	3.23 µM (inactive)	3.31 µM (inactive)	12.9 µM (inactive)	1.55 µM (inactive)	1.89 µM (inactive)	2.22 µM (inactive)		1.6 µM (inactive)	1.82 µM (inactive)	3.01 µM (inactive)	
